Reference: patent US20100234766A1, “Topical administration of a salt compound to facilitate venipuncture” (priority 2006, published 2010)

What was measured:
[1] = tested on: veins visible on the dorsum of the hand; assay: Peripheral venous filling time after topical application (Example 1); type: in vivo, human; conditions: for VENOUS FILL TIME: average of two subjects; for effect on venous fill time (in words): topical application, dorsum of hand, summary of Table 1
Description: Several studies were conducted to determine the effect of topically applied compounds on peripheral venous filling. The same two healthy adult male volunteer subjects were used for each of the studies.
In each study, a baseline value for peripheral venous filling time was determined as follows. Each subject held their outstretched arm vertically with hand directed upwards toward the ceiling for a period of time sufficient to cause the veins visible on the dorsum of the hand to attain their minimum dilation. Then, the subject lowered their hand and held their outstretched arm vertically with hand directed downwards toward the floor for a period of time sufficient to cause the veins visible on the dorsum of the hand to attain their maximum dilation. The time for the veins to attain maximum dilation following the lowering of the hands was measured.
This procedure was repeated following application of a test compound to the site of visible veins on the dorsum of the hands in order to determine the effect of the test compound on venous filling. Longer venous filling times are indicative of vasodilation and increased pooling of blood within the vein.

vein of the inner elbow = assay: Vein diameter from visible light images after swabbing, arm stationary (Examples 3 and 4); conditions: for AVERAGE % CHANGE IN VEIN DIAMETER: nine minutes following application; for Diameter Post-Application / Diameter Pre-Application / Percent change (vein diameter): Example 3; for Diameter Post-Application: endpoint image nine minutes following application, concentration as in test agent label; for Diameter Pre-Application: initial image prior to application of test agent (baseline); for Percent change (vein diameter): nine minutes following application versus pre-application; for vasodilation of the vein of the elbow (in words): summary of Table 4, salts at 10 mM;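 for all read-outs here: agents applied to skin over the inner elbow vein with the arm resting still on a table, diameter read in pixels from images taken before and nine minutes after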
Description: Studies in Example 2 were performed except that the vein of the inner elbow, the site most frequently used for phlebotomy, was evaluated and vein diameter was measured from enlarged, sequential, visible light images. […] Instead the response to swabbing was recorded with the arm in a stationary position resting on a table top.
The initial image was taken prior to application of each test agent. The endpoint image was taken nine minutes following application of the test agent. The vein diameters were measured in pixels.
The procedure of Example 3 was repeated utilizing swabs impregnated with various salt compounds on one to three adult male and female subjects. Each test compound was applied to the skin overlying the vein of the inner elbow. The initial image was taken prior to application of each test agent. The endpoint image was taken nine minutes following application of the test agent. The vein diameters were measured in pixels.

dorsal hand veins = assay: Infrared thermal imaging of dorsal hand veins after swabbing and hand elevation (Example 2); type: in vivo, human
Description: Infrared (IR) thermal imaging utilizing a standardized, calibrated infrared (950 nm wavelength) camera acquiring electronic images and providing color coded maps for testing effects of test vasodilator chemical compounds on dorsal hand veins was performed in three male and two female healthy volunteers. Infrared was utilized to determine the degree to which the test chemical compounds cause vasodilation because infrared provides a measure of thermal gradient and diameter that correlates well with visual indications of increased venous size and with successful first attempt venipuncture. Test agents were applied by swabbing the target area for about 30 seconds. A baseline control without application of any swab or by swabbing with a placebo swab containing no liquid was performed at the start of each test as a basis to compare imaging of the vein dilator dependent filling. IR images were obtained using a standardized, calibrated infrared (950 nm wavelength) camera that acquired an electronic image and provided a color coded thermal map. […] The swab was rubbed onto the dorsal surface of a hand of each subject and then the hand was elevated for 2 minutes after which the hand was returned to a horizontal position. IR imaging was performed on the dorsum of the hand before elevation and at intervals following the return to the horizontal position.

[2] = Study 1, baseline (none) 54 sec, EtOH 70%, MgCl2 100 mM
[3] = Study 3, baseline (none) 51 sec, EtOH 70%, MgSO4 10 mM
[4] = Example 4, 10 mM, one to three subjects
[5] = Study 4, baseline (none) 39 sec, MgSO4 10 mM

CCO [EtOH, ethyl alcohol]
VENOUS FILL TIME [1, 2]: 59 s | % CHANGE FROM BASELINE (venous fill time) [1, 2]: 9% | VENOUS FILL TIME [1, 3]: 38 s | % CHANGE FROM BASELINE (venous fill time) [1, 3]: (−25) % | decrease in fill time ([1]; study 3, EtOH 70%, versus baseline): 25% | effect on venous fill time (in words) [1]: no effect on venous fill time

O=S(=O)([O-])[O-].[Ca+2] [10 mM CaSO4, CaSO4]
AVERAGE % CHANGE IN VEIN DIAMETER (vein of the inner elbow; [4]): 17.7%

CC(=O)[O-].CC(=O)[O-].[Mn+2] [10 mM Mn acetate, Mn acetate]
AVERAGE % CHANGE IN VEIN DIAMETER (vein of the inner elbow; [4]): 0.0%

[Cl][Cu][Cl] [10 mM CuCl2, CuCl2]
AVERAGE % CHANGE IN VEIN DIAMETER (vein of the inner elbow; [4]): 10.5%

benzalkonium chloride [1% benzalkonium chloride, reference compound]
Diameter Post-Application (vein of the inner elbow): 37.80 pixels | Diameter Pre-Application (vein of the inner elbow): 34.41 pixels | Percent change (vein diameter) (vein of the inner elbow): 9.85%

[Ca+2].[Cl-].[Cl-] [10 mM CaCl2, CaCl2]
AVERAGE % CHANGE IN VEIN DIAMETER (vein of the inner elbow; [4]): 12.0%

[Cl][Mn][Cl] [10 mM MnCl2, MnCl2]
AVERAGE % CHANGE IN VEIN DIAMETER (vein of the inner elbow; [4]): 2.7% | vasodilation of the vein of the elbow (in words) (vein of the inner elbow; Example 4): mild vasodilation

CC(=O)[O-].CC(=O)[O-].[Ca+2] [10 mM Ca acetate, Ca acetate]
AVERAGE % CHANGE IN VEIN DIAMETER (vein of the inner elbow; [4]): −0.5% | vasodilation of the vein of the elbow (in words) (vein of the inner elbow; Example 4): did not show vasodilation

CC(C)O [Isopropyl alcohol, isopropyl alcohol, reference compound]
VENOUS FILL TIME [1, 5]: 69 s | % CHANGE FROM BASELINE (venous fill time) [1, 5]: 76% | effect on venous fill time (in words) [1]: increased venous fill time | effect on dorsal hand veins on IR examination (in words), early (dorsal hand veins; Example 2a, compared to dry swab control, 30 seconds following return to horizontal, 70% isopropyl alcohol): initial vasoconstriction with reduced filling of the veins on the dorsum of the hand | Diameter Post-Application (vein of the inner elbow): 55.04 pixels | Diameter Pre-Application (vein of the inner elbow): 57.78 pixels | Percent change (vein diameter) (vein of the inner elbow): (−4.74) Percent | AVERAGE % CHANGE IN VEIN DIAMETER (vein of the inner elbow; Example 4, 70%): −13.2% | vasodilation of the vein of the elbow (in words) (vein of the inner elbow; Example 4): constriction of the underlying vein

[Cl-].[Cl-].[Mg+2] [MgCl2]
VENOUS FILL TIME [1, 2]: 158 s | % CHANGE FROM BASELINE (venous fill time) [1, 2]: 190% | effect on venous fill time (in words) [1]: substantial increases in venous filling time compared to baseline control | AVERAGE % CHANGE IN VEIN DIAMETER (vein of the inner elbow; [4]): 6.5%

[Cl-].[Cl-].[Sr+2] [10 mM SrCl2, SrCl2]
AVERAGE % CHANGE IN VEIN DIAMETER (vein of the inner elbow; [4]): −6.0% | vasodilation of the vein of the elbow (in words) (vein of the inner elbow; Example 4): did not show vasodilation

CC(=O)[O-].CC(=O)[O-].[Mg+2] [10 mM Mg acetate, Mg acetate]
AVERAGE % CHANGE IN VEIN DIAMETER (vein of the inner elbow; [4]): 27.9%

O=S(=O)([O-])[O-].[Sr+2] [10 mM SrSO4, SrSO4]
AVERAGE % CHANGE IN VEIN DIAMETER (vein of the inner elbow; [4]): 16.95%

O=S(=O)([O-])[O-].[Cu+2] [10 mM CuSO4, CuSO4]
AVERAGE % CHANGE IN VEIN DIAMETER (vein of the inner elbow; [4]): 20.95%

CC(=O)[O-].CC(=O)[O-].[Sr+2] [10 mM Sr acetate, Sr acetate]
AVERAGE % CHANGE IN VEIN DIAMETER (vein of the inner elbow; [4]): 7.35%

O=S(=O)([O-])[O-].[Mg+2] [MgSO4, magnesium sulfate]
effect on venous fill time (in words) [1]: substantial increases in venous filling time compared to baseline control | Increase in Venous Diameter Following Hand Elevation (dorsal hand veins; MgSO4 10 mM in water, benzalkonium chloride 1%, maximal dilation after return to horizontal, control (dry swab) <10%): 30% | Diameter Post-Application (vein of the inner elbow): 73.06 pixels | Diameter Pre-Application (vein of the inner elbow): 65.86 pixels | Percent change (vein diameter) (vein of the inner elbow): 10.93% | AVERAGE % CHANGE IN VEIN DIAMETER (vein of the inner elbow; [4]): 30.0% | AVERAGE % CHANGE IN VEIN DIAMETER (vein of the inner elbow; Example 4, 100 mM): 25.2% | AVERAGE % CHANGE IN VEIN DIAMETER (vein of the inner elbow; Example 4, 1 M): 22.9% | optimal concentration (vein of the inner elbow; Example 4, from 10 mM, 100 mM and 1 M tested): 10 mM | vasodilation of the vein of the elbow (in words) (vein of the inner elbow; Example 4): powerful vasodilator

O=S(=O)([O-])[O-].[Mn+2] [10 mM MnSO4, MnSO4]
AVERAGE % CHANGE IN VEIN DIAMETER (vein of the inner elbow; [4]): 0.0%

O=S(=O)([O-])[O-].[Zn+2] [10 mM ZnSO4, ZnSO4]
AVERAGE % CHANGE IN VEIN DIAMETER (vein of the inner elbow; [4]): −4.4% | vasodilation of the vein of the elbow (in words) (vein of the inner elbow; Example 4): failed to demonstrate vasodilation

O=C([O-])CC(O)(CC(=O)[O-])C(=O)[O-].O=C([O-])CC(O)(CC(=O)[O-])C(=O)[O-].[Mg+2].[Mg+2].[Mg+2] [10 mM Mg citrate, Mg citrate]
AVERAGE % CHANGE IN VEIN DIAMETER (vein of the inner elbow; [4]): 4.2%
